The values that follow are results of earlier work, collected in paper PMC3433420 (PLoS ONE, 2012).

One may read the Kd as the equilibrium constant for the complex coming apart.

Where two headings read alike, the source gives them in different places.

The target of one data set is SH2 and PTB domains. The following applies: most recent PM interactions, cited from earlier work. The source says:
Supplement pone.0044471.s022.xlsx, sheet "Most recent PM interactions" | column: Kd || Supplement pone.0044471.s022.xlsx, sheet "All original PM interactions" | column: Kd

In another data set the target is GRB7 SH2 domain (Homo sapiens, UniProt Q14451). More on the design: 6X His; thioredoxin; made in house; host or cells: E. coli BL21(DE3)pLysS. The following applies: Protein GRB7, most recent PM interactions, cited from earlier work.
Chain of GRB7 SH2 domain (Q14451 431-527 limits assumed): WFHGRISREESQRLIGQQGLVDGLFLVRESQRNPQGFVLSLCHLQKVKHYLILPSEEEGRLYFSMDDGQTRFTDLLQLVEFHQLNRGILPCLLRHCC

RLLDIDETEpYHADGGKVd [ErbB2 877]: the Kd was 0.72 µM on SH2 and PTB domains (Protein BLK, ref Kaushansky et al. Chem and Biol 2008); 0.65 µM at SH2 and PTB domains (Protein PLCG2-N, ref Kaushansky et al. Chem and Biol 2008); 1.1 µM on SH2 and PTB domains (Protein PLCG2-NC, ref Kaushansky et al. Chem and Biol 2008); 1.4 µM at SH2 and PTB domains (Protein RASA1-NC, ref Kaushansky et al. Chem and Biol 2008); 1.89 µM on SH2 and PTB domains (Protein YES1, ref Kaushansky et al. Chem and Biol 2008); 1.2 µM at GRB7 SH2 domain (ref Kaushansky et al. Chem and Biol 2008).

With AFSPAFDNLYpYWDQDPPE [ErbB2 1222], the dissociation constant Kd was 1.84 µM at SH2 and PTB domains (Protein ABL1, ref Jones et al. 2006 / Kaushansky et al. Chem and Biol 2008); 0.19 µM on SH2 and PTB domains (Protein ABL2, ref Jones et al. 2006 / Kaushansky et al. Chem and Biol 2008); 0.05 µM on SH2 and PTB domains (Protein BLK, ref Jones et al. 2006 / Kaushansky et al. Chem and Biol 2008); 1.46 µM on SH2 and PTB domains (Protein CRKL, ref Jones et al. 2006 / Kaushansky et al. Chem and Biol 2008); 0.49 µM at SH2 and PTB domains (Protein GRB10, ref Jones et al. 2006 / Kaushansky et al. Chem and Biol 2008); 0.22 µM at SH2 and PTB domains (Protein ITK, ref Jones et al. 2006 / Kaushansky et al. Chem and Biol 2008). The dissociation constant Kd at SH2 and PTB domains (Protein PIK3R1-NC, ref Jones et al. 2006 / Kaushansky et al. Chem and Biol 2008) is 1.84 µM; at SH2 and PTB domains (Protein PIK3R3-NC, ref Jones et al. 2006 / Kaushansky et al. Chem and Biol 2008), 0.78 µM; on SH2 and PTB domains (Protein PLCG1-NC, ref Jones et al. 2006 / Kaushansky et al. Chem and Biol 2008), 1.79 µM; at SH2 and PTB domains (Protein PLCG2-N, ref Jones et al. 2006 / Kaushansky et al. Chem and Biol 2008), 0.6 µM; on SH2 and PTB domains (Protein PLCG2-NC, ref Jones et al. 2006 / Kaushansky et al. Chem and Biol 2008), 0.26 µM; at SH2 and PTB domains (Protein RASA1-N, ref Jones et al. 2006 / Kaushansky et al. Chem and Biol 2008) it was 0.5 µM. For the same substance, the dissociation constant Kd was 0.22 µM on SH2 and PTB domains (Protein RASA1-NC, ref Jones et al. 2006 / Kaushansky et al. Chem and Biol 2008); 1.47 µM at SH2 and PTB domains (Protein SH2B2, ref Jones et al. 2006 / Kaushansky et al. Chem and Biol 2008); 1.6 µM at SH2 and PTB domains (Protein SH2D3A, ref Jones et al. 2006 / Kaushansky et al. Chem and Biol 2008); 0.71 µM on SH2 and PTB domains (Protein SH2D3C, ref Jones et al. 2006 / Kaushansky et al. Chem and Biol 2008); 0.61 µM at SH2 and PTB domains (Protein SHC1-PTB, ref Jones et al. 2006 / Kaushansky et al. Chem and Biol 2008); 0.46 µM at SH2 and PTB domains (Protein SHC2-PTB, ref Jones et al. 2006 / Kaushansky et al. Chem and Biol 2008). In addition, the dissociation constant (Kd) is 1.71 µM at SH2 and PTB domains (Protein SHC3, ref Jones et al. 2006 / Kaushansky et al. Chem and Biol 2008); 0.59 µM at SH2 and PTB domains (Protein SHF, ref Jones et al. 2006 / Kaushansky et al. Chem and Biol 2008); 0.2 µM on SH2 and PTB domains (Protein SRC, ref Jones et al. 2006 / Kaushansky et al. Chem and Biol 2008); 1.97 µM at SH2 and PTB domains (Protein SYK-C, ref Jones et al. 2006 / Kaushansky et al. Chem and Biol 2008); 0.2 µM at SH2 and PTB domains (Protein SYK-N, ref Jones et al. 2006 / Kaushansky et al. Chem and Biol 2008); 0.46 µM on SH2 and PTB domains (Protein SYK-NC, ref Jones et al. 2006 / Kaushansky et al. Chem and Biol 2008). For the same substance, the equilibrium dissociation constant (Kd) at SH2 and PTB domains (Protein TEC, ref Jones et al. 2006 / Kaushansky et al. Chem and Biol 2008) is 1.61 µM; on SH2 and PTB domains (Protein TENC1, ref Jones et al. 2006 / Kaushansky et al. Chem and Biol 2008), 0.84 µM; on SH2 and PTB domains (Protein TNS3, ref Jones et al. 2006 / Kaushansky et al. Chem and Biol 2008), 1.29 µM; at SH2 and PTB domains (Protein VAV3, ref Jones et al. 2006 / Kaushansky et al. Chem and Biol 2008), 1.12 µM; at SH2 and PTB domains (Protein YES1, ref Jones et al. 2006 / Kaushansky et al. Chem and Biol 2008) it was 0.22 µM; at GRB7 SH2 domain (ref Jones et al. 2006 / Kaushansky et al. Chem and Biol 2008), 0.25 µM.

For the substance EHKDNIGSQpYLLNWCVQd [ErbB1 813], the dissociation constant Kd on SH2 and PTB domains (Protein ABL2, ref Kaushansky et al. Mol Biosys 2008) was 0.2 µM; on SH2 and PTB domains (Protein GRB10, ref Kaushansky et al. Mol Biosys 2008), 0.35 µM; at SH2 and PTB domains (Protein ITK, ref Kaushansky et al. Mol Biosys 2008) it was 0.31 µM; at SH2 and PTB domains (Protein NCK2, ref Kaushansky et al. Mol Biosys 2008), 0.2 µM; on SH2 and PTB domains (Protein PIK3R1-C, ref Kaushansky et al. Mol Biosys 2008), 1.85 µM; at SH2 and PTB domains (Protein PIK3R1-NC, ref Kaushansky et al. Mol Biosys 2008), 1.82 µM. Besides, the dissociation constant (Kd) is 1.87 µM at SH2 and PTB domains (Protein PIK3R3-NC, ref Kaushansky et al. Mol Biosys 2008); 1.95 µM on SH2 and PTB domains (Protein RASA1-C, ref Kaushansky et al. Mol Biosys 2008); 0.16 µM on SH2 and PTB domains (Protein RASA1-NC, ref Kaushansky et al. Mol Biosys 2008); 1.6 µM at SH2 and PTB domains (Protein SH2D1B, ref Kaushansky et al. Mol Biosys 2008); 0.05 µM at SH2 and PTB domains (Protein SH2D3C, ref Kaushansky et al. Mol Biosys 2008); 0.28 µM on SH2 and PTB domains (Protein SHB, ref Kaushansky et al. Mol Biosys 2008). The Kd at SH2 and PTB domains (Protein SHE, ref Kaushansky et al. Mol Biosys 2008) is 1.38 µM; on SH2 and PTB domains (Protein SHF, ref Kaushansky et al. Mol Biosys 2008), 1.06 µM; at SH2 and PTB domains (Protein SRC, ref Kaushansky et al. Mol Biosys 2008), 0.08 µM; on SH2 and PTB domains (Protein SYK-NC, ref Kaushansky et al. Mol Biosys 2008) it was 0.24 µM; at SH2 and PTB domains (Protein TENC1, ref Kaushansky et al. Mol Biosys 2008), 1.15 µM; on SH2 and PTB domains (Protein TNS3, ref Kaushansky et al. Mol Biosys 2008), 1.89 µM. The Kd was 0.37 µM at SH2 and PTB domains (Protein VAV1, ref Kaushansky et al. Mol Biosys 2008); 0.47 µM at SH2 and PTB domains (Protein VAV2, ref Kaushansky et al. Mol Biosys 2008); 0.96 µM on SH2 and PTB domains (Protein VAV3, ref Kaushansky et al. Mol Biosys 2008); 0.022 µM on SH2 and PTB domains (Protein YES1, ref Kaushansky et al. Mol Biosys 2008); 0.46 µM at GRB7 SH2 domain (ref Kaushansky et al. Mol Biosys 2008).
